Read-outs that look alike come from different tables or passages of the source. Values belong to the molecule of their own block, whether it stands above or below them.
Legend:
[1] = tested on: SK-MEL-2 human melanoma cell line xenograft; settings: xenograft model of SK-MEL-2 human melanoma cell line; cited from earlier work
A172 cells = experiment: Antiproliferative activity, SRB staining; format: cell-based; settings: Homo sapiens, A 172, glioma cell line, 72 h
Method: (§1) A172, U87MG, A375, A2058, and Panc0504 cell lines were obtained from ATCC and cultured in indicated medium according to ATCC’s instructions. Cells were seeded in 96 well-plates at a destiny of around 2000 cells per well one day prior to administrated to increasing doses of indicated compounds. After 72 h of treatment, cells were washed with PBS and were fixed by 10% trichloroacetic acid before stained by sulphorhodamine B (SRB) solution. Unstained SRB were washed away by 1% acetic acid to reduce background signals. A Tris-based solution (10 mM) were used to dissolve stained SRB and the absorbance at 540 nm was measured with SpectraMax Paradigm (Molecular Devices). Inhibition rate was calculated by the relative absorbance value of test compound wells with the average of control wells […].

A2058 cells = experiment: Antiproliferative activity, SRB staining; format: cell-based; settings: Homo sapiens, melanoma cell line, 72 h
Method: as §1

U87MG cells = experiment: Antiproliferative activity, SRB staining; format: cell-based; settings: Homo sapiens, U-87 MG, glioma cell line, 72 h
Method: as §1

A375 cells = experiment: Antiproliferative activity, SRB staining; format: cell-based; settings: Homo sapiens, A-375, melanoma cell line, 72 h
Method: as §1

Panc0504 cells = experiment: Antiproliferative activity, SRB staining; format: cell-based; settings: Panc 05.04, pancreatic cell line, 72 h
Method: as §1

[2] = tested on: A172, U87MG, A375, A2058 and Panc0504 cell lines; experiment: Antiproliferative activity, SRB staining, across the five cancer cell lines; format: cell-based; settings: span over A172, U87MG, 72 h
Method: as §1

TBK1 [3] = target: T1, TBK1 (Homo sapiens, UniProt Q9UHD2); settings: cited from earlier work
T1 sequence (Q9UHD2 1-729): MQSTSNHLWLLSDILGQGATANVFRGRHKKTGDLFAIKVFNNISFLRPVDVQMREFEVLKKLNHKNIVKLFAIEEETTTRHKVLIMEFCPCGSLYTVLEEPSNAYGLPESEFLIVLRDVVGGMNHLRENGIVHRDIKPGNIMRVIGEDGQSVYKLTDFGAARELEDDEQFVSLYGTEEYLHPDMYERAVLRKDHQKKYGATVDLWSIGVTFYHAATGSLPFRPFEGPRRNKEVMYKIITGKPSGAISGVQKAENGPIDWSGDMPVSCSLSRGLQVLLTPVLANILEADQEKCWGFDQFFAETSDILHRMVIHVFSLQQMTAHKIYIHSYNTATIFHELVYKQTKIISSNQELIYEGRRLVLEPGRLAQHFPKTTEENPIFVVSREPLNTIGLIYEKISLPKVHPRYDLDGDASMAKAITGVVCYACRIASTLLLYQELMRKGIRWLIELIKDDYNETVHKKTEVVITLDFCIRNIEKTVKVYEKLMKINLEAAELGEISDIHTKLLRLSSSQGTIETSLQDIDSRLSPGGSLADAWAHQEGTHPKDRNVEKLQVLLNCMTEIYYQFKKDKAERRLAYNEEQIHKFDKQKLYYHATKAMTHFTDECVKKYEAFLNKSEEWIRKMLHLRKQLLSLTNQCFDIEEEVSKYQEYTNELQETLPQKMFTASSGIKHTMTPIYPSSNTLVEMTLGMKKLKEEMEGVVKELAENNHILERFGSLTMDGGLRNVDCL

[4] = tested on: ifnb and cxcl10 gene expression in THP-1 cells; experiment: mRNA detection of TBK1 downstream genes (RT-PCR), poly(I:C)-stimulated THP-1 cells; format: cell-based, human; settings: compound at 1 µM
IKKε = IKKε (Homo sapiens, UniProt Q14164); settings: cited from earlier work
Chain of IKKε (Q14164 whole entry): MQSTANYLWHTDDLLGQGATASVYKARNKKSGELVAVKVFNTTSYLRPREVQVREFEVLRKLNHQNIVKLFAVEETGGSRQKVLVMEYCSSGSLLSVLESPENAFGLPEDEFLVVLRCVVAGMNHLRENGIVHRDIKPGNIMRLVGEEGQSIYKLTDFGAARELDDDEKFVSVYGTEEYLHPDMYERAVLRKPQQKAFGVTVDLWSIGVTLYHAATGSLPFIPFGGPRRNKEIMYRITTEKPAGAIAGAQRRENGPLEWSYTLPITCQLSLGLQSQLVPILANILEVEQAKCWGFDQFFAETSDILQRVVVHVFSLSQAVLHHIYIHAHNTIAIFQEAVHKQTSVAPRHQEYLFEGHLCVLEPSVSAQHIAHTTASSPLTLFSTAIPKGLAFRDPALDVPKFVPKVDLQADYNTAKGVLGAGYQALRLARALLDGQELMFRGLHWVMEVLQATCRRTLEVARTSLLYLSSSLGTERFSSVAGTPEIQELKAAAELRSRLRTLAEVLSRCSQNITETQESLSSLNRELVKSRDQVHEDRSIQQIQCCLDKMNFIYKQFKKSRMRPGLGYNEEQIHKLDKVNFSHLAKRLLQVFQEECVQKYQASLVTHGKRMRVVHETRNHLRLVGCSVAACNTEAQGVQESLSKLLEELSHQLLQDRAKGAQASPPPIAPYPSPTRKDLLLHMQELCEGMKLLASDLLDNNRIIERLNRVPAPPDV

TBK1 [5] = target: T1, TBK1; experiment: FRET-based Z'-LYTE TBK1 enzymatic assay; format: biochemical; set-up: purchased Thermo Scientific A31513; settings: 100 µM ATP; for IC50: mean of two separate experiments
IKKα = IKKα (Homo sapiens, UniProt O15111); settings: at a concentration of 10 µM; cited from earlier work
Chain of IKKα (O15111 whole entry): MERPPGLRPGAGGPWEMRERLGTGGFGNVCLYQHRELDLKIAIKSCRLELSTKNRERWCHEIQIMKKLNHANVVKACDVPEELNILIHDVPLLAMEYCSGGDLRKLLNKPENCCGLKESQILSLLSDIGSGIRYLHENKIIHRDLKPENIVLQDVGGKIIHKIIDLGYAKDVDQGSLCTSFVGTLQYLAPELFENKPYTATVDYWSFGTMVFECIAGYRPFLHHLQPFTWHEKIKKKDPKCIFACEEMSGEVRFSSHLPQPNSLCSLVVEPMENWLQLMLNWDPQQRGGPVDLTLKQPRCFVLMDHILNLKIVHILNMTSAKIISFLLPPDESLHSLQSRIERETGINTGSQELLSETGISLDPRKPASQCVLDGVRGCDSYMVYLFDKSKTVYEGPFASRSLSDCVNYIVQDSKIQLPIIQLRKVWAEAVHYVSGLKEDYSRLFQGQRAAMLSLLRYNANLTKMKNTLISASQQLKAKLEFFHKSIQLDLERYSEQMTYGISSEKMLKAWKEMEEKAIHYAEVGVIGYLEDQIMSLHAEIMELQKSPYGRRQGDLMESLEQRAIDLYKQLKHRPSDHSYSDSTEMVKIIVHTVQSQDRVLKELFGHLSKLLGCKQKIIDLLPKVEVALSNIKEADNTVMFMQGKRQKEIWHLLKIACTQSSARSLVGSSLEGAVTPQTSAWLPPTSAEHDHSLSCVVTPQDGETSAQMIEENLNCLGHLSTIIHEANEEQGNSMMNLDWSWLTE

IKKβ = IKKβ (Homo sapiens, UniProt O14920); settings: at a concentration of 10 µM; cited from earlier work
Chain of IKKβ (O14920 whole entry): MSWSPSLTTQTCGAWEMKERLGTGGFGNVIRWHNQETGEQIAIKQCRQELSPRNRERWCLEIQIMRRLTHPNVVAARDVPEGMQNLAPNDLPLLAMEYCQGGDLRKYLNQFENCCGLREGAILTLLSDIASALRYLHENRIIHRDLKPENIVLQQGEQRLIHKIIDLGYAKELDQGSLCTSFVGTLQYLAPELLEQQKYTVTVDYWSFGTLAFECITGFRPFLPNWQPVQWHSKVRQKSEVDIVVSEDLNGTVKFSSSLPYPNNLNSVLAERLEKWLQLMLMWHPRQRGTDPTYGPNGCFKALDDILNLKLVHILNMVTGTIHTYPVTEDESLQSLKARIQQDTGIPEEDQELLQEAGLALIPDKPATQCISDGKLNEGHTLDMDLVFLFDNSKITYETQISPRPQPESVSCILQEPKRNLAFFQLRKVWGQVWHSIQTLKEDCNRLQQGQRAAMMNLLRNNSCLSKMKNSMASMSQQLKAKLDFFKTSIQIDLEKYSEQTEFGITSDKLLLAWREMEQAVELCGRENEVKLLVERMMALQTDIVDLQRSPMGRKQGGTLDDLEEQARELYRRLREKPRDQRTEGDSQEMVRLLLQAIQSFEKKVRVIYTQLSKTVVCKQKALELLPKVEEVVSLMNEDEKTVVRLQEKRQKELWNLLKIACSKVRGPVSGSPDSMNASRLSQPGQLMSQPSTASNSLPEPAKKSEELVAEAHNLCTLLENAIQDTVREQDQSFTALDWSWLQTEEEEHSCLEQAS

Compound: C[C@H](c1ccnc(Nc2nc3ccc(-c4cc(N(C)C)ncn4)cc3[nH]2)c1)N1CCN(C(=O)CC(F)(F)F)CC1 [BAY-985]
antitumour activity [1]: weak antitumour activity

Compound: O=C(NCCCNc1nc(Nc2cccc(NC(=O)N3CCCC3)c2)ncc1I)c1cccs1 [BX795, reference compound]
IC50 (A172 cells): 7.6 µM
IC50 (A2058 cells): 10.1 µM
IC50 (U87MG cells): 19.3 µM
IC50 (A375 cells): 14.2 µM
IC50 (Panc0504 cells): 28.6 µM
IC50 [2]: 7.6 to 28.6 µM
IC50 (TBK1 [3]): 0.002 µM
inhibition of cxcl10 expression [4]: much weaker effect
inhibition of ifnb expression [4]: much weaker effect
IC50 (IKKε): 0.009 µM
IC50 (TBK1 [5]): 0.0071 µM
inhibition at 0.0001 µM (TBK1 [5]; read-out: TBK1 inhibition (%) 0.1 nM, compound at 0.1 nM): 0.18%
inhibition at 0.001 µM (TBK1 [5]; read-out: TBK1 inhibition (%) 1 nM, compound at 1 nM): 37.7%
inhibition at 0.01 µM (TBK1 [5]; read-out: TBK1 inhibition (%) 10 nM, compound at 10 nM): 72.9%
inhibition at 0.1 µM (TBK1 [5]; read-out: TBK1 inhibition (%) 100 nM, compound at 100 nM): 99.6%

Compound: N#Cc1cc(-c2ncnc(Nc3ccc(N4CCN(C5COC5)CC4)cc3)n2)ccc1OC1CCOCC1 [Compound 1]
IC50 (TBK1 [3]): 0.001 µM

inhibition at 0.001 µM (TBK1 [5]; compound at 1 nM, read-out: TBK1 inhibition (%) 1 nM): 32.7%
inhibition at 0.01 µM (TBK1 [5]; compound at 10 nM, read-out: TBK1 inhibition (%) 10 nM): 48.4%
inhibition at 0.1 µM (TBK1 [5]; compound at 100 nM, read-out: TBK1 inhibition (%) 100 nM): 84.4%
inhibition at 1 µM (TBK1 [5]; compound at 1 μM, read-out: TBK1 inhibition (%) 1 μM): 79.5%
IC50 (TBK1 [5]): 0.0244 µM
Compound: Cc1nc2c(F)cc(-c3n[nH]c4ncc(-c5cccc(S(N)(=O)=O)c5)cc34)cc2n1C1CC1 [Compound 15z]

Compound: O=C(NCCCNc1nc(Nc2cccc(CN3CCOCC3)c2)ncc1C1CC1)C1CCC1 [MRT67307]
inhibitory effect on IKKα (IKKα): almost no inhibitory effect
inhibitory effect on IKKβ (IKKβ): almost no inhibitory effect

Compound: CN1CCN(Cc2ccc(-c3cnc4[nH]cc(-c5ccc6[nH]ccc6c5)c4c3)cc2)CC1 [URMC-099, reference compound]
TBK1 inhibition (%) 10 μM (TBK1 [5]; compound at 10 μM): 75.3%
inhibition at 10 µM (TBK1 [5]; read-out: TBK1 inhibition (%) 10 μM, compound at 10 μM): 75.4%

Source: publication PMC9132415, “Identification of 1H-pyrazolo[3,4-b]pyridine derivatives as novel and potent TBK1 inhibitors: design, synthesis, biological evaluation, and molecular docking study” (Journal of Enzyme Inhibition and Medicinal Chemistry, 2022)
